target: T1, GPR120 (Homo sapiens, UniProt Q5NUL3); assay: GPR120 agonism in CHO mitoPhotinaGPR120 cell based assay with fluorescent (Fluo-8 calcium, FLIPRTetra) readout, Agonist Mode, dose response; conditions: CHO mitoPhotinaGPR120 cells, Fluo-8 No Wash Ca2+ dye, dose response in quadruplicate, 0.0033% fatty acid free BSA
T1 construct: expressed in transfected cells; host or cells: CHO mitoPhotinaGPR120 cells
T1 sequence (Q5NUL3 1-361): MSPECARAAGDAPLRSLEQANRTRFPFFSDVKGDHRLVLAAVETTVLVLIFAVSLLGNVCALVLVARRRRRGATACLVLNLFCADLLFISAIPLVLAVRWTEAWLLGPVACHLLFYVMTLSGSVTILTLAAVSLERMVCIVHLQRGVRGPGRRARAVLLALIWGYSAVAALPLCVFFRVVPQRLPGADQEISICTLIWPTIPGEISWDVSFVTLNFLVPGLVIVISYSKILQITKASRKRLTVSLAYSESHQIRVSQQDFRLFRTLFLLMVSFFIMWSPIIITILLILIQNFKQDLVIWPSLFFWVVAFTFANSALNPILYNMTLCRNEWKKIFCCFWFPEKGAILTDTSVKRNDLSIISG
Experimental: Compounds of the invention were tested for GPR120 agonism in a CHO mitoPhotinaGPR120 cell based assay with fluorescent readout in Agonist Mode in dose response in quadruplicate with intra-plate modality.
Twenty (20) h after seeding, growth medium was manually removed and cells were starved in the presence of 25 μL/w of Standard Tyrode's Buffer. After 3 h, cells were loaded with 20 μL/w of 0.5× Fluo-8 No Wash (AAT Bioquest, Inc.) Ca2+ sensitive dye prepared in Standard Tyrode's Buffer. Cells were incubated for 1 h at room temperature in the dark. Ten (10) μL/w 3× of controls and compounds were diluted in Standard Tyrode's Buffer+0.01% fatty acid free BSA (final concentration=0.0033%) and injected at the FLIPRTetra®, recording the kinetic calcium traces for 3 minutes. Standard Tyrode's buffer composition: 5 mM KCl, 130 mM NaCl, 2 mM CaCl2), 5 mM NaHCO3, 1 mM MgCl2, 20 mM HEPES, pH7.4.

Point of comparison: `Cc1nn(-c2ccccc2)c(COc2ccc(CO)c(F)c2F)c1C#N` [Example 14, 5-[[2,3-difluoro-4-(hydroxymethyl)phenoxy]methyl]-3-methyl-1-phenyl-pyrazole-4-carbonitrile], EC50 3.09 µM. Against it:
- Cc1nn(-c2ccccc2)c(COc2c(F)cc(CC(C)CO)cc2F)c1C#N (racemic) [Example 43, 5-[[2,6-difluoro-4-(3-hydroxy-2-methyl-propyl)phenoxy]methyl]-3-methyl-1-phenyl-pyrazole-4-carbonitrile] — 6.9-fold lower, 0.45 µM
- Cc1nn(-c2ccccc2)c(COc2ccc(CCC(C)O)cc2)c1C#N (racemic) [Example 47, 5-[[4-(3-hydroxybutyl)phenoxy]methyl]-3-methyl-1-phenyl-pyrazole-4-carbonitrile] — 1.9-fold lower, 1.65 µM
- Cc1nn(-c2ccccc2)c(COc2c(F)cc(CC(C)CO)cc2F)c1C#N (single isomer, unassigned; (+)) [Example 43A, (+)-5-[[2,6-difluoro-4-(3-hydroxy-2-methyl-propyl)phenoxy]methyl]-3-methyl-1-phenyl-pyrazole-4-carbonitrile] — 9.1-fold lower, 0.34 µM
- Cc1nn(-c2ccccc2)c(COc2c(F)cc(CC(C)CO)cc2F)c1C#N (single isomer, unassigned; (+)) [Example 43B, (+)-5-[[2,6-difluoro-4-(3-hydroxy-2-methyl-propyl)phenoxy]methyl]-3-methyl-1-phenyl-pyrazole-4-carbonitrile] — 1.8-fold lower, 1.69 µM
- Cc1nn(-c2ccccc2)c(COc2ccc(CCC(C)O)cc2)c1C#N (single isomer, unassigned; (+)) [Example 47A, (+)-5-[[4-(3-hydroxybutyl)phenoxy]methyl]-3-methyl-1-phenyl-pyrazole-4-carbonitrile] — 6.2-fold lower, 0.5 µM
- Cc1nn(-c2ccccc2)c(COc2ccc(CCC(C)O)cc2)c1C#N (single isomer, unassigned; (-)) [Example 47B, (−)-5-[[4-(3-hydroxybutyl)phenoxy]methyl]-3-methyl-1-phenyl-pyrazole-4-carbonitrile] — within 1.5-fold, 2.36 µM
- Cc1nn(-c2ccccc2)c(COc2ccc(C#N)cc2)c1C#N [Example 1, 5-[(4-cyanophenoxy)methyl]-3-methyl-1-phenyl-pyrazole-4-carbonitrile] — 2.4-fold lower, 1.29 µM
- Cc1nn(-c2ccccc2)c(COc2ccc(CO)cc2Cl)c1C#N [Example 2, 5-[[2-chloro-4-(hydroxymethyl)phenoxy]methyl]-3-methyl-1-phenyl-pyrazole-4-carbonitrile] — 2.5-fold lower, 1.24 µM
- COc1ccc(OCc2c(C#N)c(C)nn2-c2ccccc2)cc1 [Example 3, 5-[(4-methoxyphenoxy)methyl]-3-methyl-1-phenyl-pyrazole-4-carbonitrile] — 2.4-fold lower, 1.31 µM
- Cc1ccc(OCc2c(C#N)c(C)nn2-c2ccccc2)cc1 [Example 4, 3-methyl-5-[(4-methylphenoxy)methyl]-1-phenyl-pyrazole-4-carbonitrile] — 1.9-fold lower, 1.67 µM
- Cc1nn(-c2ccccc2)c(COc2ccc(CO)cc2)c1C#N [Example 5, 5-[[4-(hydroxymethyl)phenoxy]methyl]-3-methyl-1-phenyl-pyrazole-4-carbonitrile] — within 1.5-fold, 2.31 µM
- Cc1nn(-c2ccccc2)c(COc2ccc(CCO)cc2)c1C#N [Example 6, 5-[[4-(2-hydroxyethyl)phenoxy]methyl]-3-methyl-1-phenyl-pyrazole-4-carbonitrile] — 2.8-fold lower, 1.1 µM
- Cc1nn(-c2ccccc2)c(COc2ccccc2)c1C#N [Example 8, 3-methyl-5-(phenoxymethyl)-1-phenyl-pyrazole-4-carbonitrile] — 2-fold lower, 1.52 µM
- Cc1nn(-c2ccccc2)c(COc2ccc(C#N)cc2F)c1C#N [Example 10, 5-[(4-cyano-2-fluoro-phenoxy)methyl]-3-methyl-1-phenyl-pyrazole-4-carbonitrile] — within 1.5-fold, 3.39 µM
- Cc1cc(CO)ccc1OCc1c(C#N)c(C)nn1-c1ccccc1 [Example 16, 5-[[4-(hydroxymethyl)-2-methyl-phenoxy]methyl]-3-methyl-1-phenyl-pyrazole-4-carbonitrile] — 3.6-fold lower, 0.86 µM
- Cc1cc(CO)cc(C)c1OCc1c(C#N)c(C)nn1-c1ccccc1 [Example 17, 5-[[4-(hydroxymethyl)-2,6-dimethyl-phenoxy]methyl]-3-methyl-1-phenyl-pyrazole-4-carbonitrile] — 3.1-fold lower, 1.01 µM
- Cc1nn(-c2ccccc2)c(COc2ccc(F)cc2)c1C#N [Example 18, 5-[(4-fluorophenoxy)methyl]-3-methyl-1-phenyl-pyrazole-4-carbonitrile] — 2.2-fold lower, 1.41 µM
- Cc1nn(-c2ccccc2)c(COc2ccc(CO)cc2F)c1C#N [Example 20, 5-[[2-fluoro-4-(hydroxymethyl)phenoxy]methyl]-3-methyl-1-phenyl-pyrazole-4-carbonitrile] — 1.7-fold lower, 1.77 µM
- Cc1nn(-c2ccccc2)c(COc2c(F)cc(CO)cc2F)c1C#N [Example 21, 5-[[2,6-difluoro-4-(hydroxymethyl)phenoxy]methyl]-3-methyl-1-phenyl-pyrazole-4-carbonitrile] — 2.3-fold lower, 1.33 µM
- Cc1nn(-c2ccccc2)c(COc2ccccc2CO)c1C#N [Example 23, 5-[[2-(hydroxymethyl)phenoxy]methyl]-3-methyl-1-phenyl-pyrazole-4-carbonitrile] — 2.6-fold higher, 8.13 µM
- Cc1nn(-c2ccccc2)c(COc2cccc(CO)c2)c1C#N [Example 24, 5-[[3-(hydroxymethyl)phenoxy]methyl]-3-methyl-1-phenyl-pyrazole-4-carbonitrile] — 2.4-fold higher, 7.31 µM
- Cc1cccc(C)c1OCc1c(C#N)c(C)nn1-c1ccccc1 [Example 25, 5-[(2,6-dimethylphenoxy)methyl]-3-methyl-1-phenyl-pyrazole-4-carbonitrile] — 3.3-fold lower, 0.94 µM
- Cc1ccccc1OCc1c(C#N)c(C)nn1-c1ccccc1 [Example 26, 3-methyl-5-[(2-methylphenoxy)methyl]-1-phenyl-pyrazole-4-carbonitrile] — 5.3-fold lower, 0.58 µM
- Cc1nn(-c2ccccc2)c(COc2ccc(CC#N)cc2)c1C#N [Example 29, 5-[[4-(cyanomethyl)phenoxy]methyl]-3-methyl-1-phenyl-pyrazole-4-carbonitrile] — within 1.5-fold, 4.22 µM
- Cc1cccc(OCc2c(C#N)c(C)nn2-c2ccccc2)c1C [Example 30, 5-[(2,3-dimethylphenoxy)methyl]-3-methyl-1-phenyl-pyrazole-4-carbonitrile] — 4.4-fold lower, 0.71 µM
- Cc1nn(-c2ccccc2)c(COc2c(F)cc(CCCO)cc2F)c1C#N [Example 32, 5-[[2,6-difluoro-4-(3-hydroxypropyl)phenoxy]methyl]-3-methyl-1-phenyl-pyrazole-4-carbonitrile] — 34-fold lower, 0.09 µM
- Cc1nn(-c2ccccc2)c(COc2ccc(CCO)cc2F)c1C#N [Example 33, 5-[[2-fluoro-4-(2-hydroxyethyl)phenoxy]methyl]-3-methyl-1-phenyl-pyrazole-4-carbonitrile] — 2.4-fold lower, 1.27 µM
- Cc1nn(-c2ccccc2)c(COc2ccc(CCCO)cc2)c1C#N [Example 35, 5-[[4-(3-hydroxypropyl)phenoxy]methyl]-3-methyl-1-phenyl-pyrazole-4-carbonitrile] — 21-fold lower, 0.15 µM
- CCc1ccccc1OCc1c(C#N)c(C)nn1-c1ccccc1 [Example 39, 5-[(2-ethylphenoxy)methyl]-3-methyl-1-phenyl-pyrazole-4-carbonitrile] — 2.3-fold higher, 7.24 µM
- Cc1nn(-c2ccccc2)c(COc2cccc(F)c2)c1C#N [Example 40, 5-[(3-fluorophenoxy)methyl]-3-methyl-1-phenyl-pyrazole-4-carbonitrile] — 3.9-fold lower, 0.79 µM
- Cc1nn(-c2ccccc2)c(COc2ccc(CCCO)cc2F)c1C#N [Example 42, 5-[[2-fluoro-4-(3-hydroxypropyl)phenoxy]methyl]-3-methyl-1-phenyl-pyrazole-4-carbonitrile] — 6.3-fold lower, 0.49 µM
- Cc1nn(-c2ccccc2)c(COc2ccc(CC(=O)NCCO)cc2)c1C#N [Example 49, 2-[4-[(4-cyano-5-methyl-2-phenyl-pyrazol-3-yl)methoxy]phenyl]-~{N}-(2-hydroxyethyl)acetamide] — 6-fold higher, 18.4 µM
- COc1cc(CCCO)ccc1OCc1c(C#N)c(C)nn1-c1ccccc1 [Example 53, 5-[[4-(3-hydroxypropyl)-2-methoxy-phenoxy]methyl]-3-methyl-1-phenyl-pyrazole-4-carbonitrile] — 5.9-fold lower, 0.52 µM
- Cc1nn(-c2ccccc2)c(COc2ccc(C(C)O)cc2)c1C#N (stereo not shown) [Example 54, 5-[[4-(1-hydroxyethyl)phenoxy]methyl]-3-methyl-1-phenyl-pyrazole-4-carbonitrile] — 6-fold higher, 18.4 µM
- COCc1ccc(OCc2c(C#N)c(C)nn2-c2ccccc2)cc1 [Example 55, 5-[[4-(methoxymethyl)phenoxy]methyl]-3-methyl-1-phenyl-pyrazole-4-carbonitrile] — 1.5-fold lower, 2.03 µM
- COCCc1ccc(OCc2c(C#N)c(C)nn2-c2ccccc2)cc1 [Example 56, 5-[[4-(2-methoxyethyl)phenoxy]methyl]-3-methyl-1-phenyl-pyrazole-4-carbonitrile] — 1.6-fold higher, 5 µM

Reference: patent US11597702B2, “Substituted pyrazoles FFA4/GPR120 receptor agonists” (AXXAM S.P.A., priority 2018, dated 2023)
